According to patent publication US20090062294A1, “HETEROARYL-SUBSTITUTED UREA MODULATORS OF FATTY ACID AMIDE HYDROLASE” (priority 2007, published 2009):

Tests used:
rat FAAH = target: T1, rat FAAH (Rattus norvegicus, UniProt P97612); assay: Assay Method 2: FAAH assay, 3H-anandamide hydrolysis in homogenate of SK-N-MC cells transfected with rat FAAH; format: biochemical; conditions: average of results, > = solubility limit or highest concentration tested
T1 sequence (P97612 1-579): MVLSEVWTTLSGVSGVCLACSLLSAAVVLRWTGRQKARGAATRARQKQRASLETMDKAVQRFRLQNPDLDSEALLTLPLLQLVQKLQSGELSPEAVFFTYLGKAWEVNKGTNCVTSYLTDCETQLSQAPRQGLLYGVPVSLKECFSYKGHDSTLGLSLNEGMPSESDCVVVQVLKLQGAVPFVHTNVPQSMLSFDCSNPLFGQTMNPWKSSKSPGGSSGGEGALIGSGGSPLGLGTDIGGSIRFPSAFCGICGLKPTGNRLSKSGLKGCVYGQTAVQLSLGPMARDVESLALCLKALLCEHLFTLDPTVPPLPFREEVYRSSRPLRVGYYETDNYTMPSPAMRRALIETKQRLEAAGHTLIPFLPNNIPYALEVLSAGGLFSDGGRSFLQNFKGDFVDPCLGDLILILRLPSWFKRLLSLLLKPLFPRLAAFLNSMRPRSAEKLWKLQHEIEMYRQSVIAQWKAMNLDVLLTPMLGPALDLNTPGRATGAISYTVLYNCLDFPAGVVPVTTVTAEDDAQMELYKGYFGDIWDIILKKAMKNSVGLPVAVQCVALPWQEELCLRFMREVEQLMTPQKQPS
In short: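 Homogenate of SK-N-MC cells stably transfected with rat FAAH cDNA (G418-selected clones) in pH 9 Tris/EDTA/glycerol/Triton buffer. Incubated with compound and 80 nM final [3H]-anandamide for 1 h at rt. Released [3H]-ethanolamine separated from substrate on activated charcoal filters and counted by scintillation.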

FAAH = target: T2, FAAH (Homo sapiens, UniProt O00519); assay: Assay Method 1: FAAH assay, 3H-anandamide hydrolysis in homogenate of T84 cells or SK-N-MC cells transfected with human FAAH; format: biochemical; conditions: average of results, > = solubility limit or highest concentration tested
T2 sequence (O00519 1-579): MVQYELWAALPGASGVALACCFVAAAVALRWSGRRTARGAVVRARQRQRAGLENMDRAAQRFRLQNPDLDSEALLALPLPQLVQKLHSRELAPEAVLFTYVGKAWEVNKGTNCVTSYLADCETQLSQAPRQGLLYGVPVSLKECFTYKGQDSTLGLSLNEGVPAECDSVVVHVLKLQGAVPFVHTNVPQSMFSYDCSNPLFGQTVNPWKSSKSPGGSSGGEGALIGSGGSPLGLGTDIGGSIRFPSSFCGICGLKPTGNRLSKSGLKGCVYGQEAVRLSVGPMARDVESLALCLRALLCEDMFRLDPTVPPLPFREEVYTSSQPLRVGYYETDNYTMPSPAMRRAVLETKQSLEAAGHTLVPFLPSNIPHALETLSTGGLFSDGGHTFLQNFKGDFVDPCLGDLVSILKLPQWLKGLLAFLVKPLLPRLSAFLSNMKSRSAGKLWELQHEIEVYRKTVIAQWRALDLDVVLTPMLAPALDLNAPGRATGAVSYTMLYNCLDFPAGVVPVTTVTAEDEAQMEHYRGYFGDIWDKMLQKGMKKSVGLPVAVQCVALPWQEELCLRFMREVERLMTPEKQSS
In short: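 Homogenates of T84 cells or of SK-N-MC cells stably transfected with human FAAH (G418-selected) were prepared in pH 9 Tris/EDTA/glycerol/Triton buffer. They were incubated with compound and 80 nM final ^3H-anandamide for 1 h at rt. Released ^3H-ethanolamine was separated on activated charcoal and counted by scintillation.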

| SMILES | IC50 (rat FAAH) | IC50 (FAAH) |
| --- | --- | --- |
| O=C(Nc1noc2ccccc12)N1CCN(Cc2cccc(Oc3cccc(Cl)c3)c2)CC1 [Example 127, N-1,2-Benzisoxazol-3-yl-4-[3-(3-chlorophenoxy)benzyl]piperazine-1-carboxamide] | 40 nM | 40 nM |
| N#Cc1ccc(Oc2cccc(CN3CCN(C(=O)Nc4noc5ccccc45)CC3)c2)cc1C(F)(F)F [Example 128, N-1,2-Benzisoxazol-3-yl-4-{3-[4-cyano-3-(trifluoromethyl)phenoxy]benzyl}piperazine-1-carboxamide] | 400 nM | 230 nM |
| N#Cc1cccc(Oc2cccc(CN3CCN(C(=O)Nc4noc5ccccc45)CC3)c2)c1 [Example 129, N-1,2-Benzisoxazol-3-yl-4-[3-(3-cyanophenoxy)benzyl]piperazine-1-carboxamide] | 120 nM | 80 nM |
| O=C(Nc1noc2ccccc12)N1CCN(Cc2cccc(Oc3ccc(SC(F)(F)F)cc3)c2)CC1 [Example 130, N-1,2-Benzisoxazol-3-yl-4-(3-{4-[(trifluoromethyl)sulfanyl]phenoxy}-benzyl)piperazine-1-carboxamide] | 4 nM | 20 nM |
| O=C(Nc1noc2ccccc12)N1CCN(Cc2cccc(Oc3ccc4c(c3)OC(F)(F)O4)c2)CC1 [Example 131, N-1,2-Benzisoxazol-3-yl-4-{3-[(2,2-difluoro-1,3-benzodioxol-5-yl)oxy]benzyl}piperazine-1-carboxamide] | 4 nM | 7 nM |
| O=C(Nc1noc2ccccc12)N1CCN(Cc2cccc(Oc3ccc(S(=O)(=O)C(F)(F)F)cc3)c2)CC1 [Example 132, N-1,2-Benzisoxazol-3-yl-4-(3-{4-[(trifluoromethyl)sulfonyl]phenoxy}-benzyl)piperazine-1-carboxamide] | 5 nM | 23 nM |
| O=C(Nc1noc2ccccc12)N1CCN(Cc2cccc(C#Cc3ccccc3)c2)CC1 [Example 133, N-1,2-Benzisoxazol-3-yl-4-{[3-(phenylethynyl)phenyl]methyl}piperazine-1-carboxamide] | 115 nM | 24 nM |
| O=C(Nc1ccon1)N1CCN(Cc2cccc(Oc3ccc(OC(F)(F)F)cc3)c2)CC1 [Example 134, N-Isoxazol-3-yl-4-{3-[4-(trifluoromethoxy)phenoxy]benzyl}piperazine-1-carboxamide] | 100 nM | 10 nM |
| O=C(Nc1ccon1)N1CCN(Cc2cccc(Oc3cccc(Cl)c3)c2)CC1 [Example 136, 4-[3-(3-Chlorophenoxy)benzyl]-N-isoxazol-3-ylpiperazine-1-carboxamide] | 1000 nM | 55 nM |
| O=C(Nc1ccon1)N1CCN(Cc2cccc(Oc3ccc(OCC(F)(F)F)cc3)c2)CC1 [Example 137, N-Isoxazol-3-yl-4-{3-[4-(2,2,2-trifluoroethoxy)phenoxy]benzyl}piperazine-1-carboxamide] | 360 nM | 60 nM |
| N#Cc1cccc(Oc2cccc(CN3CCN(C(=O)Nc4ccon4)CC3)c2)c1 [Example 139, 4-[3-(3-Cyanophenoxy)benzyl]-N-isoxazol-3-ylpiperazine-1-carboxamide] | > 10000 nM | 860 nM |
| O=C(Nc1ccon1)N1CCN(Cc2cccc(Oc3ccc4c(c3)OC(F)(F)O4)c2)CC1 [Example 141, 4-{3-[(2,2-Difluoro-1,3-benzodioxol-5-yl)oxy]benzyl}-N-isoxazol-3-ylpiperazine-1-carboxamide] | 870 nM | 50 nM |
| N#Cc1ccc(Oc2cccc(CN3CCN(C(=O)Nc4ccon4)CC3)c2)cc1 [Example 152, 4-[3-(4-Cyano-phenoxy)-benzyl]-piperazine-1-carboxylic acid isoxazol-3-ylamide] | 5000 nM | 330 nM |
| O=C(Nc1ccon1)N1CCN(Cc2cccc(Oc3ccc(F)c(F)c3)c2)CC1 [Example 153, 4-[3-(3,4-Difluorophenoxy)benzyl]-N-isoxazol-3-ylpiperazine-1-carboxamide] | 8000 nM | 460 nM |
| O=C(Nc1ccon1)N1CCN(Cc2cccc(Oc3ccc(SC(F)(F)F)cc3)c2)CC1 [Example 155, N-Isoxazol-3-yl-4-(3-{4-[(trifluoromethyl)sulfanyl]phenoxy}benzyl)-piperazine-1-carboxamide] | 270 nM | 20 nM |
| O=C(Nc1ccon1)N1CCN(Cc2cccc(Oc3ccc(F)c(C(F)(F)F)c3)c2)CC1 [Example 156, 4-{3-[4-Fluoro-3-(trifluoromethyl)phenoxy]benzyl}-N-isoxazol-3-ylpiperazine-1-carboxamide] | 5000 nM | 43 nM |
| O=C(Nc1ccon1)N1CCN(Cc2cccc(Oc3ccc(S(=O)(=O)C(F)(F)F)cc3)c2)CC1 [Example 158, N-Isoxazol-3-yl-4-(3-{4-[(trifluoromethyl)sulfonyl]phenoxy}benzyl)-piperazine-1-carboxamide] | 150 nM | 10 nM |
| O=C(Nc1ccon1)N1CCN(Cc2cccc(Oc3cccc(OC(F)(F)F)c3)c2)CC1 [Example 159, N-Isoxazol-3-yl-4-{3-[3-(trifluoromethoxy)phenoxy]benzyl}piperazine-1-carboxamide] | 300 nM | 50 nM |
| O=C(Nc1ccon1)N1CCN(Cc2cccc(Oc3ccc(C(F)(F)F)cc3)c2)CC1 [Example 161, N-isoxazol-3-yl-4-{3-[4-(trifluoromethyl)phenoxy]benzyl}piperazine-1-carboxamide] | 160 nM | 4 nM |

Results, then the compound that gave them:

| IC50 (rat FAAH) | IC50 (FAAH) | SMILES |
| --- | --- | --- |
| > 10000 nM | 5000 nM | O=C(Nc1ccon1)N1CCN(Cc2cc3ccccc3o2)CC1 [Example 138, 4-(1-Benzofuran-2-ylmethyl)-N-isoxazol-3-ylpiperazine-1-carboxamide] |
| 6000 nM | 700 nM | O=C(Nc1ccon1)N1CCN(Cc2cccc(Oc3ccccc3Cl)c2)CC1 [Example 140, 4-[3-(2-Chlorophenoxy)benzyl]-N-isoxazol-3-ylpiperazine-1-carboxamide] |
| > 10000 nM | > 10000 nM | O=C(Nc1ccon1)N1CCN(Cc2ccc3c(c2)OCO3)CC1 [Example 143, 4-(1,3-Benzodioxol-5-ylmethyl)-N-isoxazol-3-ylpiperazine-1-carboxamide] |
| 3000 nM | 350 nM | O=C(Nc1ccon1)N1CCN(Cc2ccc3ccccc3c2)CC1 [Example 144, N-Isoxazol-3-yl-4-(naphthalen-2-ylmethyl)piperazine-1-carboxamide] |
| 430 nM | 16 nM | O=C(Nc1ccon1)N1CCN(Cc2cccc(Oc3ccc(Br)cc3)c2)CC1 [Example 145, 4-[3-(4-Bromophenoxy)benzyl]-N-isoxazol-3-ylpiperazine-1-carboxamide] |
| > 10000 nM | 5000 nM | O=C(Nc1ccon1)N1CCN(Cc2ccc(Br)cc2)CC1 [Example 148, 4-(4-Bromo-benzyl)-piperazine-1-carboxylic acid isoxazol-3-ylamide] |
| 1200 nM | 400 nM | O=C(Nc1ccon1)N1CCN(Cc2cccc(Oc3ccc4ccccc4c3)c2)CC1 [Example 150, 4-[3-(Naphthalen-2-yloxy)-benzyl]-piperazine-1-carboxylic acid isoxazol-3-ylamide] |
| 6000 nM | 3000 nM | O=C(Nc1ccon1)N1CCN(Cc2ccc(Br)c(F)c2)CC1 [Example 151, 4-(4-Bromo-3-fluoro-benzyl)-piperazine-1-carboxylic acid isoxazol-3-ylamide] |
| 360 nM | 80 nM | O=C(Nc1ccon1)N1CCN(Cc2cccc(Oc3cccc(Br)c3)c2)CC1 [Example 157, 4-[3-(3-Bromophenoxy)benzyl]-N-isoxazol-3-ylpiperazine-1-carboxamide] |
| 8000 nM | 3000 nM | O=C(Nc1ccon1)N1CCN(Cc2ccc(Cl)c(Cl)c2)CC1 [Example 160, 4-(3,4-Dichlorobenzyl)-N-isoxazol-3-ylpiperazine-1-carboxamide] |
